Two compounds from patent US10206909B2, “3-(1H-pyrrolo[2,3-B]pyridin-2-yl)-1H-pyrazolo[4,3-B]pyridines and therapeutic uses thereof” (Samumed, LLC, priority 2015, dated 2019) can be followed below.

Assay type in all cases: cell-based
For experiment [1], the system named is Wnt activity (Sp5-Luc reporter, SW480 colon carcinoma cells). The experiment in a line: Wnt activity screening assay: Sp5-Luc reporter gene assay in SW480 cells. Particulars: Homo sapiens, SW480 cells, overnight incubation. An excerpt: The screening assay for Wnt activity is described as follows. Reporter cell lines can be generated by stably transducing cancer cell lines (e.g., colon cancer) or primary cells (e.g., IEC-6 intestinal cells) with a lentiviral construct that includes a Wnt-responsive promoter driving expression of the firefly luciferase gene.
SW480 colon carcinoma cells were transduced with a lentiviral vector expressing luciferase with a human Sp5 promoter consisting of a sequence of eight TCF/LEF binding sites. SW480 cells stably expressing the Sp5-Luc reporter gene and a hygromycin resistance gene were selected by treatment with 150 μg/mL of hygromycin for 7 days. These stably transduced SW480 cells were expanded in cell culture and used for all further screening activities. Each compound was dissolved in DMSO as a 10 mM stock and used to prepare compound source plates. Serial dilution (1:3, 10-point dose-response curves starting from 10 μM) and compound transfer was performed using the ECHO 550 (Labcyte, Sunnyvale, Calif.) into 384-well white solid bottom assay plates (Greiner Bio-One) with appropriate DMSO backfill for a final DMSO concentration of 0.1%. For Sp5-Luc reporter gene assays, the cells were plated at 4,000 cells/well in 384-well plates with medium containing 1% fetal bovine serum and incubated overnight at 37° C. and 5% CO2. Following incubation, 20 μl of BrightGlo luminescence reagent (Promega) was added to each well of the 384-well assay plates. The plates were placed on an orbital shaker for 2 min and then luminescence was quantified using the Envision (Perkin Elmer) plate reader. Readings were normalized to DMSO only treated cells, and normalized activities were utilized for EC50 calculations using the dose-response log (inhibitor) vs. response -variable slope (four parameters) nonlinear regression feature available in GraphPad Prism 5.0 (or Dotmatics). For EC50 of >10 μM, the percent inhibition at 10 μM is provided.

Experiment [2] has as its system SW480 colon cancer cells. As to the kind of experiment: Cell viability assay (CellTiter-Blue). Conditions: Homo sapiens, 96 h; SW480 cell viability, four days, CellTiter-Blue. As to the method: Representative compounds were screened using the following assay procedure to assess the effect on cell viability as described below.
Each compound was dissolved in DMSO as a 10 mM stock and used to prepare compound source plates. Serial dilution (1:3, 8-point dose-response curves from 10 μM to 0.0045 μM) and compound transfer was performed using the ECHO 550 (Labcyte, Sunnyvale, Calif.) into 96-well clear bottom, black-walled plates (Corning-Costar).
Approximately 2×10^3 SW480 colon cancer cells were seeded into each well and allowed to incubate in the presence or absence of compound for four days at 37° C./5% CO2. Eight replicates of DMSO-treated cells served as controls and cells treated with compound were performed in duplicate.
After incubation, 20 μL of CellTiter-Blue (Promega) was added to each well allowed to incubate for approximately 3 hours. This reagent was a buffered solution which contains resazurin, metabolically active cells were able to reduce rezarurin (blue) into resorufin (pink) which was highly fluorescent. This measured fluorescence was used as a readout for cell viability.
After incubation, the plates were read at Ex 560 nm Em 590 nm (Cytation 3, BioTek). Dose-response curves were generated and EC50 concentration values were calculated using non-linear regression curve fit in the GraphPad Prism (San Diego, Calif.) or Dotmatics' Studies Software (Bishops Stortford, UK). For EC50 of >10 μM, the percent inhibition at 10 μM is provided.

In experiment [3] the test system is primary human fibroblasts derived from IPF patients (LL29 cells). As to the kind of experiment: Inhibition of the fibrotic process: αSMA staining in TGF-β1 treated fibroblasts. Particulars: Fibroblast, 96 h, LL29 cells, TGF-β1 20 ng/mL, 4 days, % αSMA positive cells. An excerpt:
Representative compounds were screened using primary human fibroblasts (derived from IPF patients) treated with TGF-β1 to determine their ability to inhibit the fibrotic process.
Human Fibroblast Cell Culture: Primary human fibroblasts derived from IPF patients (LL29 cells) [^1Xiaoqiu Liu, et. al., “Fibrotic Lung Fibroblasts Show Blunted Inhibition by cAMP Due to Deficient cAMP Response Element-Binding Protein Phosphorylation”, Journal of Pharmacology and Experimental Therapeutics (2005), 315(2), 678-687; ^2Watts, K. L., et. al., “RhoA signaling modulates cyclin D1 expression in human lung fibroblasts; implications for idiopathic pulmonary fibrosis”, Respiratory Research (2006), 7(1), 88] were obtained from American Type Culture Collection (ATCC) and expanded in F12 medium supplemented with 15% Fetal Bovine Serum and Penicillin/Streptomycin.
Compound Screening: Each compound was dissolved in DMSO as a 10 mM stock and used to prepare compound source plates. Serial dilution (1:2, 11-point dose-response curves from 10 μM to […]) and compound transfer was performed using the ECHO 550 (Labcyte, Sunnyvale, Calif.) into 384-well clear bottom assay plates (Greiner Bio-One) with appropriate DMSO backfill for a final DMSO concentration of 0.1%. LL29 cells are plated at 1,500 cells/well in 80 μL/well F12 medium supplemented with 1% Fetal Bovine Serum. One hour after addition of the cells, TGF-β1 (Peprotech; 20 ng/mL) was added to the plates to induce fibrosis (ref. 1 and 2 above). Wells treated with TGF-β1 and containing DMSO were used as controls. Cells were incubated at 37° C. and 5% CO2 for 4 days. Following incubation for 4 days, SYTOX green nucleic acid stain (Life Technologies [Thermo Fisher Scientific]) was added to the wells at a final concentration of 1 μM and incubated at room temperature for 30 min. Cells were then fixed using 4% formaldehyde (Electron Microscopy Sciences), washed 3 times with PBS followed by blocking and permeabilization using 3% Bovine Serum Albumin (BSA; Sigma) and 0.3% Triton X-100 (Sigma) in PBS. Cells were then stained with antibody specific to α-smooth muscle actin (αSMA; Abcam) (ref. 1 and 2 above) in 3% Bovine Serum Albumin (BSA; Sigma) and 0.3% Triton X-100 (Sigma) in PBS, and incubated overnight at 4° C. Cells were then washed 3 times with PBS, followed by incubation with Alexa Flor-647 conjugated secondary antibody (Life Technologies [Thermo Fisher Scientific]) and DAPI at room temperature for 1 hour. Cells were then washed 3 times with PBS and plates were sealed for imaging. αSMA staining was imaged by excitation at 630 nm and emission at 665 nm and quantified using the Compartmental Analysis program on the CellInsight CX5 (Thermo Scientific). Dead or apoptotic cells were excluded from analysis based on positive SYTOX green staining. % of total cells positive for αSMA were counted in each well and normalized to the average of 11 wells treated with TGF-β1 on the same plate using Dotmatics' Studies Software. The normalized averages (fold change over untreated) of 3 replicate wells for each compound concentration were used to create dose-responses curves and EC50 values were calculated using non-linear regression curve fit in the Dotmatics' Studies Software. For EC50 of >10 μM, the percent inhibition at 10 μM is provided.

The subject of experiment [4] is IL-6 (THP-1 cells). As to the kind of experiment: IL-6 inhibition in LPS-stimulated THP-1 cells (HTRF). Conditions: Homo sapiens; THP-1 cells, LPS 500 ng/mL, 22 hours, IL6 HTRF. As to the method:
Human Monocyte Cell Culture: Human monocyte cell line (THP-1 cells; Catalog # TIB-202, ATCC, Manassas, Va.) were cultured in Roswell Park Memorial Institute (RPMI) 1640 Medium (Catalog #21870-100, Buffalo, N.Y.) with 1% L-glutamine, 1% HEPES, 1% Sodium Pyruvate, 2% Sodium Bicarbonate supplemented with 100 units/mL penicillin, 50 μg/mL streptomycin, 2-mercaptoethanol (0.05 mM) [basal medium] and 10% fetal bovine serum (Catalog #16140089, Life Technologies, Carlsbad, Calif.) at 37° C. and 5% CO2.
Compound Screening: THP-1 cells were cultured in basal media with 1% FBS for 24 hours before the start of the assay. Each compound was dissolved in DMSO as a 10 mM stock and used to prepare compound source plates. Serial dilution (1:3, 10-point dose-response curves starting from 10 μM) and compound transfer was performed using the ECHO 550 (Labcyte, Sunnyvale, Calif.) into 384-well white low volume assay plates (Greiner Bio-One) with appropriate DMSO backfill for a final DMSO concentration of 0.1%. THP-1 cells were plated at 5000 cells/well in the 384-well plates and incubated at 37° C. for 2 h. 500 ng/mL of LPS was added after 2 hours and cells were incubated for another 22 hours at 37° C. Plates were spun in a centrifuge for 1 minute at […] and a mixture of anti-IL6 XL665, and anti-IL6 Cryptate diluted in reconstitution buffer (Cisbio Inc.) was added to each well. Following incubation for 3 hrs at room temperature, Homogeneous Time-Resolved Fluorescence (HTRF) was measured using the Envision (Perkin Elmer) at 665 nm and […]. The ratio of fluorescence at 665 nm to 620 nm was used as a readout for IL6 quantification. All samples were processed in duplicate. Readings were normalized to DMSO treated cells and normalized activities were utilized for EC50 calculations using the dose-response log (inhibitor) vs. response —variable slope (four parameters) nonlinear regression feature available in GraphPad Prism 5.0 (or Dotmatics). For EC50 of >10 μM, the percent inhibition at 10 μM is provided.

In the case of `CC(C)Nc1cncc(-c2ccc3[nH]nc(-c4cc5c(-c6cccs6)ccnc5[nH]4)c3n2)c1` [Compound 348, N-Isopropyl-5-(3-(4-(thiophen-2-yl)-1H-pyrrolo[2,3-b]pyridin-2-yl)-1H-pyrazolo[4,3-b]pyridin-5-yl)pyridin-3-amine], the EC50 (commonly the concentration needed to bring the measured effect to its halfway point) in experiment [1] was determined as 1340 nM; in experiment [2] it was 4270 nM; in experiment [3], 994 nM; in experiment [4] it was 1350 nM.

Regarding `CN(C)CCNc1cc(F)cc(-c2ccnc3[nH]c(-c4n[nH]c5ccc(-c6cncc(NC(=O)c7ccccc7)c6)nc45)cc23)c1` [Compound 459, N-(5-(3-(4-(3-((2-(Dimethylamino)ethyl)amino)-5-fluorophenyl)-1H-pyrrolo [2,3-b]pyridin-2-yl)-1H-pyrazolo[4,3-b]pyridin-5-yl)pyridin-3-yl)benzamide], the concentration giving a half-maximal response (EC50) in experiment [1] turned out to be 1500 nM; in experiment [2], 1940 nM; in experiment [3], 738 nM; in experiment [4], 9 nM.
